The values below come from patent US20190083462A1, “PREVENTION OF NSAID ENTEROPATHY WITH MICROBIOTA-DERIVED TRYPTOPHAN-METABOLITE” (THE TEXAS A&M UNIVERSITY SYSTEM, priority 2016, published 2019).

The subject of test [1] is fecal microbiota. Description: Fecal microbiota 16S rRNA sequencing (ANOSIM, SIMPER). The class given is in vivo, mice. The note with it: for mean % abundance: day 7 feces.
For test [2], the system named is small intestinal mucosa. Description: RNA sequencing (RNA-Seq) of the distal small intestinal mucosa. The class given is in vivo, mice. The note with it: indole co-administered with NSAID; degree of up-regulation vs control mice. An excerpt:
(§1) Eight- to 10-week-old specific-pathogen-free C57BL/6J mice were purchased and allowed to acclimate for 2 weeks. Mice were fed standardized laboratory rodent diet and sterile water ad libitum. Mice were randomly divided into the following 4 groups (n=5 mice/group): 1) NSAID (indomethacin); 2) indole; 3) NSAID+indole; and, 4) untreated controls. Mice were then rehoused on the basis of treatment group assignment, with 5 animals/group-cage. To induce NSAID enteropathy, mice in group 1 were gavaged once daily with indomethacin (5 mg/kg; for 7 days; Sigma Aldrich, St. Louis, Mo.) dissolved in dimethylysulfoxide (DMSO) (Sigma Aldrich, St. Louis, Mo.) and further diluted in phosphate buffered saline (PBS). Mice in group 2 received indole by gavage (20 mg/kg; once daily for 7 days; Sigma Aldrich, St. Louis, Mo.) dissolved in sterile water warmed to 55° C. Mice in group 3 received indole co-administered with indomethacin by gavage at the dosages described above. All mice were gavaged with equal volumes (200 μL) and equal concentrations of DMSO (0.001%).
Feces were collected daily by placing individual animals in sterile plastic cups that were RNase- and DNase-free until they passed feces. The mice were immediately returned to their home cages and the feces immediately flash frozen at −80° C. […]
RNA was extracted from the mucosal scrapings using an RNeasy mini kit (QIAGEN, Redwood City, Calif.) following the manufacturer's instructions and including on-column DNase treatment. RNA quantity was determined using a Nanodrop spectrophotometer (Fisher Thermoscientific) and the quality was assessed using the Nano6000 chip on a Bioanalyzer 2100(Agilent Technologies). […] Differentially expressed genes were determined using EdgeR based on the matrix of gene counts (Robinson M D, McCarthy D J, Smyth G K. edgeR: a Bioconductor package for differential expression analysis of digital gene expression data. Bioinformatics (Oxford, England) 2010; 26:139-40). Gene lists were analyzed through use of QIAGEN's Ingenuity® Pathway Analysis (IPA, QIAGEN, Redwood City, Calif. http://www.qiagen.com/ingenuity). […]

For test [3], the system named is intestinal epithelial cells. The note with it: cited from earlier work.
Test [4] has as its system fecal tryptophan metabolites. Description: Fecal tryptophan metabolites by LC-MS. The class given is in vivo, mice.
Excerpt: as §1
Feces were collected daily by placing individual animals in sterile plastic cups that were RNase- and DNase-free until they passed feces. The mice were immediately returned to their home cages and the feces immediately flash frozen at −80° C. All animals were euthanized via CO2 asphyxiation on day 8 (i.e., after 7 days of treatment). The small intestine was harvested, opened longitudinally, rinsed with ice-cold PBS, and the distal ⅓ of the intestinal mucosa was scraped for tissue gene expression analysis. The remaining small intestine was fixed in 4% paraformaldehyde, Swiss-rolled, paraffin-embedded, and stained with hematoxylin and eosin. The spleen and mesenteric lymph nodes (MLN) were harvested, and immediately placed in ice cold RPMI-1640-c+10% fetal calf serum (FCS: Life Technologies, Carlsbad, Calif.), homogenized, and prepared as a single cell suspension for flow cytometric analysis as previously described (Wang N, Strugnell R, Wijburg O, Brodnicki T. Measuring bacterial load and immune responses in mice infected with Listeria monocytogenes. Journal of Visualized Experiments: JoVE 2011).
Metabolites from the fecal contents were extracted using a solvent-based method as previously described (Sridharan G V, Choi K, Klemashevich C, Wu C, Prabakaran D, Pan L B, Steinmeyer S, Mueller C, Yousofshahi M, Alaniz R C, et al. Prediction and quantification of bioactive microbiota metabolites in the mouse gut. Nature Communications 2014; 5:5492). Briefly, fecal pellets were homogenized using a homogenizer (Omni International) with equal volume of cold methanol and half volume of chloroform. The samples were then centrifuged at 10,000 g at 4° C. (Thermo Fisher Scientific) for 10 min. Supernatant was passed through a 70-μm sterile nylon cell strainer (Falcon) and 0.6 ml of ice cold water was added. The samples were vortex and centrifuged again at 10,000 g for 5 minutes. The upper phase and lower phase were collected and 400 μl of upper phase was dried to a pellet using a vacufuge (Eppendorf, Hauppauge, N.Y.), and then reconstituted in 50 μl of methanol/water (1:1, v/v). The samples were stored at −80° C. until analysis. Tryptophan metabolites in the samples were detected and quantified on a triple quadrupole linear ion trap mass spectrometer (3200 QTRAP, AB SCIEX, Foster City, Calif.) coupled to a binary pump HPLC (Prominence LC-20, Shimazu, Concord, Ontario, Canada).

Test [5] concerns C57BL/6J mice. Briefly: Histology and small intestinal morphometric measurements. The class given is in vivo. Conditions: Swiss-rolled H & E stained small intestinal sections, n=5/group.
Protocol: Eight- to 10-week-old specific-pathogen-free C57BL/6J mice were purchased and allowed to acclimate for 2 weeks. Mice were fed standardized laboratory rodent diet and sterile water ad libitum. […] Mice were then rehoused on the basis of treatment group assignment, with 5 animals/group-cage. To induce NSAID enteropathy, mice in group 1 were gavaged once daily with indomethacin (5 mg/kg; for 7 days; Sigma Aldrich, St. Louis, Mo.) dissolved in dimethylysulfoxide (DMSO) (Sigma Aldrich, St. Louis, Mo.) and further diluted in phosphate buffered saline (PBS). […] All mice were gavaged with equal volumes (200 μL) and equal concentrations of DMSO (0.001%).
The slides were scored as previously described for intestinal inflammation (Jia Q, Lupton J R, Smith R, Weeks B R, Callaway E, Davidson L A, Kim W, Fan Y Y, Yang P, Newman R A, et al. Reduced colitis-associated colon cancer in Fat-1 (n-3 fatty acid desaturase) transgenic mice. Cancer Research 2008; 68:3985-91). Briefly, mucosal injury was determined by the following parameters scored from 0 (no evidence) to 3 (marked): mucosal ulceration, mucosal erosion, and presence of squamified epithelium. Inflammatory changes were scored similarly based on the following parameters: lymphocytic infiltration, plasma cell infiltration, and neutrophilic infiltration. Finally, an overall evidence of injury score was used to document total injury graded from 0 (none) to 4 (marked). Morphological parameters were obtained from digitally scanned slides using SPOT vr 5.0 software. Three sets of measurements from 3 separate sections were recorded for each animal by an observer blinded to treatment group. Measurements consisted of villus height, crypt depth, and submucosal mural thickness.
The mark [6] stands for this setting: unweighted Unifrac distance metric, day 7.

As for `c1ccc2[nH]ccc2c1` [Indole, indole], the “abundance of members of the phyla Firmicutes and Bacteroidetes” value in test [1] (fecal 16S rRNA sequences, Day 0 vs Day 7) is “no significant difference”. Besides, the mean % abundance in test [1] (phylum Unassigned, Other) stood at 1.90E−03%; in test [1] (phylum k_Bacteria, Other), 3.81E−03%; in test [1] (phylum k_Bacteria, p_Acidobacteria), 0%; in test [1] (phylum k_Bacteria, p_Actinobacteria), 0.0381%; in test [1] (phylum k_Bacteria, p_Bacteroidetes), 24.6%; in test [1] (phylum k_Bacteria, p_Cyanobacteria), 9.51E−03%. Further, the mean % abundance in test [1] (phylum k_Bacteria, p_Firmicutes) came out at 74.7%; in test [1] (phylum k_Bacteria, p_Proteobacteria), 0.0285%; in test [1] (phylum k_Bacteria, p_Tenericutes) it was 0.656%; in test [1] (phylum k_Bacteria, p_Verrucomicrobia) it was 1.90E−03%. Besides, the “Pairwise ANOSIM R-value vs Control” value in test [1] (setting [6]) is given as 0.2. For the same compound, the “Pairwise ANOSIM R-value vs NSAID” value in test [1] (setting [6]) is 0.2615. Also, the “Pairwise ANOSIM R-value vs NSAID + Indole” value in test [1] (setting [6]) stood at 0.1938. For the same compound, the “transcription of pro-inflammatory cytokines (IL-1α, IL-1β, TNF, IL-6) and chemokines (CXCL1, CXCL3, CXCL2, CXCL5, CCL2, CCL7)” value in test [2] is given as “not significantly different than control mice”. For the same compound, the NF-κB signaling result in test [3] was “inhibit”. For the same compound, the “anti-inflammatory effects and expression of genes associated with tight cell junctions” value in test [3] (in vitro, earlier work of the inventors) is “has anti-inflammatory effects on intestinal epithelial cells and upregulates expression of genes associated with tight cell junctions”. Moreover, the “Magnitude of change in fecal concentration between Days 0 and 7” value in test [4] (Indole, group effect ↑) came to 5.3. Moreover, the “fecal indole concentrations relative to controls” value in test [4] (feces) is “significantly more indole”. In addition, the microscopic pathology scores entry in test [5] is recorded as “not different”.
